SMILES strings stand for the structures. “And” between values parts separate entries of the source, which are not always exact repeats. Equal entries are not always repeated. Results filed as inconclusive are left out.

The assay has as its system nude mice, HT29 intrarenal xenograft, tumor weight T/C. The experiment in a line: NCI In Vivo Anticancer Drug Screen. Data for tumor model HT29;CX-1 Human Adenocarcinoma (MER+) (intrarenal inoculation) in NU/NU Swiss (nude) mice. Conditions: endpoint: mean tumor weight change, higher = larger tumour. An outline of the steps:
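Readout: treated/vehicle-control ratio of the measured endpoint (tumor size or survival) in transplanted-tumor mice.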

The mark [1] stands for this setting: dose: 75.0 mg/kg/injection, schedule: Q04DX004 (sc), vehicle: saline.

As for `COc1ccc2nc3cc(Cl)ccc3c(NCCNCCNCCNc3c4ccc(Cl)cc4nc4ccc(OC)cc34)c2c1`, the T/C reads like this: (dose: 100.0 mg/kg/injection, schedule: Q01DX010 (sc), vehicle: saline with Tween-80) 116 % of control; (dose: 400.0 mg/kg/injection, schedule: Q01DX010 (sc), vehicle: saline with Tween-80) 124 % of control; (dose: 800.0 mg/kg/injection, schedule: Q01DX010 (sc), vehicle: saline with Tween-80) 93 % of control.

Turning to `c1ccc2c(NCCCCCCCCNc3c4ccccc4nc4ccccc34)c3ccccc3nc2c1`, the T/C was 67 % of control (dose: 10.0 mg/kg/injection, schedule: Q01DX010 (sc), vehicle: Klucel (hydroxypropylcellulose) (HPC)); 44 % of control (dose: 20.0 mg/kg/injection, schedule: Q01DX010 (sc), vehicle: Klucel (hydroxypropylcellulose) (HPC)); 82 % of control (dose: 40.0 mg/kg/injection, schedule: Q01DX010 (sc), vehicle: Klucel (hydroxypropylcellulose) (HPC)).

`CCC(C(=O)O)C(=O)O.[NH2-].[NH2-].[Pt+2]`: the T/C by setting is: under setting [1], 92 % of control; (dose: 150.0 mg/kg/injection, schedule: Q04DX004 (sc), vehicle: saline) 50 % of control.

For the compound `O=S(=O)(SC(S(=O)(=O)c1ccccc1)S(=O)(=O)c1ccccc1)c1ccccc1`, the T/C (dose: 100.0 mg/kg/injection, schedule: Q04DX004 (sc), vehicle: Klucel (hydroxypropylcellulose) (HPC)) is 246 % of control; the T/C (dose: 200.0 mg/kg/injection, schedule: Q04DX004 (sc), vehicle: Klucel (hydroxypropylcellulose) (HPC)) is 203 % of control; the T/C (dose: 400.0 mg/kg/injection, schedule: Q04DX004 (sc), vehicle: Klucel (hydroxypropylcellulose) (HPC)) was 246 % of control.

As to `CC(=O)OC1C(O)C(C)OC(OC2C(OC(=O)C3CCC4C(C3)OC3(CC(OC(=O)/C=C/c5ccccc5)C(C)CO3)C43CO3)OC(C)C(O)C2OC(C)=O)C1O` (stereo not drawn), the T/C (dose: 15.0 mg/kg/injection, schedule: Q04DX004 (sc), vehicle: distilled water + Tween-80) is 100 % of control; the T/C (dose: 30.0 mg/kg/injection, schedule: Q04DX004 (sc), vehicle: distilled water + Tween-80) is 62 % of control; the T/C (dose: 60.0 mg/kg/injection, schedule: Q04DX004 (sc), vehicle: distilled water + Tween-80) was 61 % of control; the T/C (dose: 120.0 mg/kg/injection, schedule: Q04DX004 (sc), vehicle: distilled water + Tween-80) is 91 % of control.

As for `Cc1c(N)nc(C(CC(N)=O)NCC(N)C(N)=O)nc1C(=O)NC(C(=O)NC(C)C(O)C(C)C(=O)NC(C(=O)NCCc1nc(-c2nc(C(=O)NCCCNCCCc3ccccn3)cs2)cs1)C(C)O)C(OC1OC(CO)C(O)C(O)C1OC1OC(CO)C(O)C(OC(N)=O)C1O)c1cnc[nH]1` (stereo not drawn), the T/C (dose: 9.0 mg/kg/injection, schedule: Q04DX004 (sc), vehicle: water) is 164 % of control; the T/C (dose: 18.0 mg/kg/injection, schedule: Q04DX004 (sc), vehicle: water) is 120 % of control; the T/C (dose: 36.0 mg/kg/injection, schedule: Q04DX004 (sc), vehicle: water) is 90 % of control.

Take `COc1cc2cc(c1Cl)N(C)C(=O)CC(OC(=O)CC(C)C)C1(C)OC1C(C)C1CC(O)(NC(=O)O1)C(OC)/C=C/C=C(C)C2` (stereo not drawn): the T/C was 87 % of control and 99 % of control (dose: 125.0 micrograms/kg/injection, schedule: Q04DX004 (sc), vehicle: saline + alcohol); 60 % of control (dose: 500.0 micrograms/kg/injection, schedule: Q04DX004 (sc), vehicle: saline + alcohol).

As for `Clc1cc(Cl)c(C[N+]23CN4CN(CN(C4)C2)C3)cc1Cl`, the T/C is 85 % of control (dose: 37.5 mg/kg/injection, schedule: Q04DX004 (sc), vehicle: saline with Tween-80); 95 % of control (dose: 75.0 mg/kg/injection, schedule: Q04DX004 (sc), vehicle: saline with Tween-80); 68 % of control (dose: 150.0 mg/kg/injection, schedule: Q04DX004 (sc), vehicle: saline with Tween-80).

Take `BrC1CC(Br)c2c1c1c(c3c2C(Br)CC3Br)C(Br)CC1Br` (stereo not drawn): the T/C (dose: 225.0 mg/kg/injection, schedule: Q04DX004 (sc), vehicle: water) was 76 % of control; the T/C (dose: 300.0 mg/kg/injection, schedule: Q04DX004 (sc), vehicle: water) is 84 % of control; the T/C (dose: 450.0 mg/kg/injection, schedule: Q04DX004 (sc), vehicle: water) was 157 % of control; the T/C (dose: 900.0 mg/kg/injection, schedule: Q04DX004 (sc), vehicle: water) was 158 % of control; the T/C (dose: 1200.0 mg/kg/injection, schedule: Q04DX004 (sc), vehicle: water) is 116 % of control; the T/C (dose: 1800.0 mg/kg/injection, schedule: Q04DX004 (sc), vehicle: water) was 22 % of control.

As to `C/C=C(\C)c1cc(=O)c2c(C)cc3c(c2o1)C(=O)c1c(O)c(C2CC(C)(N(C)C)C(O)C(C)O2)cc(C2CC(N(C)C)C(O)C(C)O2)c1C3=O` (stereo not drawn), the T/C was 78 % of control (dose: 0.5 mg/kg/injection, schedule: Q04DX004 (sc), vehicle: saline); 112 % of control (dose: 2.0 mg/kg/injection, schedule: Q04DX004 (sc), vehicle: saline); 82 % of control (dose: 4.0 mg/kg/injection, schedule: Q04DX004 (sc), vehicle: saline); 104 % of control (dose: 4.0 mg/kg/injection, schedule: Q04DX004 (sc), vehicle: suspension in saline); 64 % of control (dose: 8.0 mg/kg/injection, schedule: Q04DX004 (sc), vehicle: suspension in saline); 90 % of control (dose: 16.0 mg/kg/injection, schedule: Q04DX004 (sc), vehicle: suspension in saline).

For `CCNC(=O)[B-][N+](C)(C)C`, the T/C is 94 % of control (dose: 100.0 mg/kg/injection, schedule: Q04DX004 (sc), vehicle: saline); 60 % of control (dose: 200.0 mg/kg/injection, schedule: Q04DX004 (sc), vehicle: saline); 43 % of control (dose: 400.0 mg/kg/injection, schedule: Q04DX004 (sc), vehicle: saline).

With `Cc1ccc(S(=O)(=O)N/N=C/C(Br)=C(/Br)C(=O)O)cc1`, the T/C reads like this: (dose: 150.0 mg/kg/injection, schedule: Q04DX004 (sc), vehicle: Klucel (hydroxypropylcellulose) (HPC)) 47 % of control; (dose: 300.0 mg/kg/injection, schedule: Q04DX004 (sc), vehicle: Klucel (hydroxypropylcellulose) (HPC)) 55 % of control; (dose: 600.0 mg/kg/injection, schedule: Q04DX004 (sc), vehicle: Klucel (hydroxypropylcellulose) (HPC)) 22 % of control.

`OC(CBr)C(O)C(O)C(O)CBr` (stereo not drawn): the T/C (dose: 15.0 mg/kg/injection, schedule: Q01DX010 (sc), vehicle: Klucel (hydroxypropylcellulose) (HPC)) is 82 % of control; the T/C (dose: 30.0 mg/kg/injection, schedule: Q01DX010 (sc), vehicle: Klucel (hydroxypropylcellulose) (HPC)) was 44 % of control; the T/C (dose: 120.0 mg/kg/injection, schedule: Q01DX010 (sc), vehicle: Klucel (hydroxypropylcellulose) (HPC)) was 43 % of control; the T/C (dose: 200.0 mg/kg/injection, schedule: Q01DX010 (sc), vehicle: Klucel (hydroxypropylcellulose) (HPC)) is 101 % of control; the T/C (dose: 400.0 mg/kg/injection, schedule: Q01DX010 (sc), vehicle: Klucel (hydroxypropylcellulose) (HPC)) is 59 % of control.

Turning to `CCCCNCCCNCCCNC(=O)c1csc(-c2csc(CCNC(=O)C(NC(=O)C(C)C(O)C(C)NC(=O)C(NC(=O)c3nc(C(CC(N)=O)NCC(N)C(N)=O)nc(N)c3C)C(OC3OC(CO)C(O)C(O)C3OC3OC(CO)C(O)C(OC(N)=O)C3O)c3cnc[nH]3)C(C)O)n2)n1` (stereo not drawn), the T/C is, setting by setting: (dose: 8.0 mg/kg/injection, schedule: Q01DX010 (sc), vehicle: saline) 69 % of control and 83 % of control; (dose: 16.0 mg/kg/injection, schedule: Q01DX010 (sc), vehicle: saline) 76 % of control and 80 % of control; (dose: 32.0 mg/kg/injection, schedule: Q01DX010 (sc), vehicle: saline) 66 % of control and 68 % of control; (dose: 64.0 mg/kg/injection, schedule: Q01DX010 (sc), vehicle: saline) 23 % of control and 25 % of control.

As for `CCOC(OCC)C(=O)OCC(=O)[C@]1(O)Cc2c(O)c3c(c(O)c2[C@@H](OC2CC(N)C(O)C(C)O2)C1)C(=O)c1c(OC)cccc1C3=O` (stereo partly drawn), under “dose: 20.0 mg/kg/injection, schedule: Q04DX004 (sc), vehicle: water”, the T/C is 33 % of control.

In the case of `C(=N/NC1=NCCN1)/c1c2ccccc2c(/C=N\NC2=NCCN2)c2ccccc12`, the T/C by setting is: (dose: 18.75 mg/kg/injection, schedule: Q04DX004 (sc), vehicle: saline) 83 % of control; (dose: 37.5 mg/kg/injection, schedule: Q04DX004 (sc), vehicle: saline) 105 % of control; under setting [1], 75 % of control.

On to `COC1=C(C)C(=O)C2=C(C1=O)C1C3CC4=C(C(=O)C(OC)=C(C)C4=O)C(CNC(=O)C(C)=O)N3C(C#N)C(C2)N1C` (stereo not drawn), for which the T/C (dose: 1.0 mg/kg/injection, schedule: Q04DX004 (sc), vehicle: Klucel (hydroxypropylcellulose) (HPC)) is 99 % of control and the T/C (dose: 2.0 mg/kg/injection, schedule: Q04DX004 (sc), vehicle: Klucel (hydroxypropylcellulose) (HPC)) was 75 % of control.

For `O=C(O[Si](Cc1ccccc1)(Cc1ccccc1)Cc1ccccc1)N(CCCl)CCCl`, the T/C is 119 % of control (dose: 100.0 mg/kg/injection, schedule: Q04DX004 (sc), vehicle: saline with Tween-80) and 121 % of control (dose: 200.0 mg/kg/injection, schedule: Q04DX004 (sc), vehicle: saline with Tween-80).

The values above are taken from PubChem BioAssay AID206 (DTP/NCI, 2004).
